Source: patent US20250082634A1, “PIM KINASE INHIBITORS FOR TREATMENT OF MYELOPROLIFERATIVE NEOPLASMS AND FIBROSIS ASSOCIATED WITH CANCER” (Sumitomo Pharma America, Inc., priority 2018, published 2025)

Tests used:
[1] = target: PIM 1 (Homo sapiens, UniProt P11309); test: PIM kinase biochemical profile (Ki)
[2] = target: PIM 2 (Homo sapiens, UniProt Q9P1W9); test: PIM kinase biochemical profile (Ki)
[3] = target: PIM 3 (Homo sapiens, UniProt Q86V86); test: PIM kinase biochemical profile (Ki)
[4] = target: Flt3 (Homo sapiens, UniProt P36888); test: Flt3 inhibition (IC50); format: biochemical
[5] = tested on: BA/F3-EpoR-JAK2 V617F cells; test: Cell proliferation by viable cell counts; format: cell-based, murine; set-up: dose or concentration left out as unconfirmed; conditions: Compound 1, 5 days
[6] = tested on: BA/F3 cells expressing wild type JAK2; test: Cell proliferation by viable cell counts; format: cell-based, murine; conditions: wild-type JAK2, higher concentrations, 5 days
[7] = tested on: JAK2 V617F-positive HEL cells; test: Cell proliferation by viable cell counts; format: cell-based, human; conditions: 5 days
[8] = tested on: JAK2 V617F-positive UKE-1 cells; test: Cell proliferation by viable cell counts; format: cell-based, human; conditions: 5 days
[9] = tested on: SET-2 cells; test: Cell proliferation by viable cell counts; format: cell-based; conditions: 5 days
[10] = tested on: MPN patient CD34+ hematopoietic progenitor cells; test: Hematopoietic progenitor colony assay in methylcellulose; format: cell-based, human; conditions: 1-2 μM, colonies counted after 14 days
Text: (§1) Hematopoietic progenitor colonies were counted after 14 days.

[11] = tested on: healthy control CD34+ cells; test: as above; format: cell-based, human; conditions: 1-2 μM, 14 days
Text: as §1

[12] = tested on: HEL, BA/F3-EpoR-JAK2 V617F, UKE-1 and SET-2 cells expressing JAK2 V617F; test: Apoptosis by Annexin V staining and flow cytometry; format: cell-based; conditions: 48 hours after treatment, JAK2 V617F-expressing cell lines
[13] = tested on: BA/F3 cells expressing wild type JAK2; test: Apoptosis by Annexin V staining and flow cytometry; format: cell-based; conditions: 48 hours after treatment
[14] = tested on: ruxolitinib-resistant BA/F3-EpoR-JAK2 V617F cells; test: Proliferation of ruxolitinib-resistant cells by viable cell counts; format: cell-based; conditions: ruxolitinib 0.5-2 μM or Compound 1 0.25-1 μM, 5 days
[15] = tested on: homozygous JAK2 V617F knock-in mouse model of MF; test: Homozygous JAK2 V617F knock-in mouse model of MF; format: in vivo
Description: Bone marrow cells from homozygous JAK2 V617F knock-in mice were transplanted into lethally irradiated C57BL/6 recipients to obtain a cohort of MF mice with similar age. […] All mice were treated for 6 weeks.

[16] = tested on: HSC maintenance, TNFα and WNT signaling pathways; test: RNA-sequencing of LSK cells from treated homozygous JAK2 V617F mice; format: in vivo, mouse; conditions: purified LSK cells, compared with vehicle
[17] = tested on: rats; test: GLP toxicology studies in rats; format: in vivo, rat
Description: (§2) Dose calculations were determined from GLP toxicology studies in rats and non-GLP toxicology studies in dogs.

[18] = tested on: dogs; test: Non-GLP toxicology studies in dogs (7-day repeat); format: in vivo
Description: as §2
In dogs, the highest non-severely toxic dose was not observed in 7-day repeat studies at doses as high as 200 mg/kg, which equates to 7400 mg per person or greater, calculated as: […]

[19] = tested on: BA/F3 MPL W515L cells; test: Cell proliferation; format: cell-based, murine; conditions: 0.25-1 μM
Text: (§3) These animals rapidly develop marked thrombocytosis and leukocytosis. At the time of sacrifice, MPL W515L expressing mice show splenomegaly and bone marrow fibrosis.

[20] = tested on: parental BA/F3 cells; test: Cell proliferation; format: cell-based, murine
[21] = tested on: MPL mutant (MPL W515L) mice; test: MPL W515L transplantation mouse model; format: in vivo
Text: as §3

[22] = tested on: PC3 cells; test: Colony formation assay of prostate adenocarcinoma; format: cell-based; conditions: Homo sapiens, PC-3; RPMI, pyruvate, 0.5% FBS; read-out: EC50 against PC3 cells (colony formation)
Description: PC3 cells were seeded in Roswell Park Memorial Institute (RPMI) media with pyruvate and 10% fetal bovine serum (FBS).

[23] = tested on: PC3 prostate adenocarcinoma xenograft; test: PC3 prostate adenocarcinoma mouse xenograft model; format: in vivo
[24] = tested on: phospho-BAD; test: Reduction of phospho-BAD (PIM-1 biomarker); format: cell-based; conditions: compared to Compound A
Text: The results of this assay are illustrated as a plot of the % of the control against the compound concentration (FIG. 15).

[25] = Metabolic stability; format: in vitro ADME; conditions: compared to Compound A
[26] = tested on: Phosphorylation of STAT5; test: STAT5 phosphorylation immunoblot in ruxolitinib-resistant cells; format: cell-based; conditions: ruxolitinib 0.5-2 μM
[27] = Compound 1 150 mg/kg, ruxolitinib 60 mg/kg, oral gavage once daily, 6 weeks

Flt3, sequence (P36888 27-993, species assumed): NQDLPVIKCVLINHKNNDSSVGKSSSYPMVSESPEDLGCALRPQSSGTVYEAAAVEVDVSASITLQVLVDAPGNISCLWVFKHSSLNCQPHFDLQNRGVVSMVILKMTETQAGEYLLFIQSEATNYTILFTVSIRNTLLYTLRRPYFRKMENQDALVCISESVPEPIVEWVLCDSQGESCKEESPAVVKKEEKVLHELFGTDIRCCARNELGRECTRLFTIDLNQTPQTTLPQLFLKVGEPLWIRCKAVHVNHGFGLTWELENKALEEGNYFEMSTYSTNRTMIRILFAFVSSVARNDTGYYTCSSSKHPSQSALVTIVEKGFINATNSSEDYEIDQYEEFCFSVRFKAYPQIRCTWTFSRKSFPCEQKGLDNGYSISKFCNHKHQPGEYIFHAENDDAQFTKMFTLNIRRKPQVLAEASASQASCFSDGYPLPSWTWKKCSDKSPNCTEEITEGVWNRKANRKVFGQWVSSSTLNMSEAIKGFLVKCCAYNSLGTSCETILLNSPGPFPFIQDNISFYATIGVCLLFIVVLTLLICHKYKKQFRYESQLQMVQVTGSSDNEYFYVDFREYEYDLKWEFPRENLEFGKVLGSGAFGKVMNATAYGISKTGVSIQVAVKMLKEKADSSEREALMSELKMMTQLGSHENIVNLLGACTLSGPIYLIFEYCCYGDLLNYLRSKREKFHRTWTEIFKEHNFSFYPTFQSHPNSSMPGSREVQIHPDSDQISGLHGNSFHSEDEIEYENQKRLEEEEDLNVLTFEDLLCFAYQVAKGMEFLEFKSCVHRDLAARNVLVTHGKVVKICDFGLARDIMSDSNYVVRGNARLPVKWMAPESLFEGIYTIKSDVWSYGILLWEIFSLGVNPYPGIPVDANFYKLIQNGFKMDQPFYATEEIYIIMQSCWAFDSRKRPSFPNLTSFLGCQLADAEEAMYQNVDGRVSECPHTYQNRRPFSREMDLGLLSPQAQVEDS
PIM 1, sequence (P11309 whole entry, species assumed): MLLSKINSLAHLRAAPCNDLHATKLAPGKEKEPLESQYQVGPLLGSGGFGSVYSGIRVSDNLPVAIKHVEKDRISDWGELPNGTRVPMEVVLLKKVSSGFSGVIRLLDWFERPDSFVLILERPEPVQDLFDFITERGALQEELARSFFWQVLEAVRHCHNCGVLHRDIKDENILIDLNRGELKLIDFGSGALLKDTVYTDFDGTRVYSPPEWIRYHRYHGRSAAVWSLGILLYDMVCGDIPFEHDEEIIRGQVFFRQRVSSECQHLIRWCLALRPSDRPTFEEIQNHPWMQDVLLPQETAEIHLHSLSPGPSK
PIM 2, sequence (Q9P1W9 whole entry, species assumed): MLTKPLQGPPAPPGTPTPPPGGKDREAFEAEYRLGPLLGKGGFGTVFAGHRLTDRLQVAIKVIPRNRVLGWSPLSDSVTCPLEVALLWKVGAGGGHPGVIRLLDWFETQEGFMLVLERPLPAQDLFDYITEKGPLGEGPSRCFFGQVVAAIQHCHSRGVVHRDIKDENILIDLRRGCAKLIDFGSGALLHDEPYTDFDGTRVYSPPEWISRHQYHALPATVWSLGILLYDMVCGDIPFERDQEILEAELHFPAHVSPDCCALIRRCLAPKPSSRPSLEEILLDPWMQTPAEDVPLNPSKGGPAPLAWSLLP

## CC(C)(O)[C@H]1CC[C@H](Nc2ccc3ncc(-c4cccc(C(F)(F)F)c4)n3n2)CC1 [Compound 1, 2-((1R,4R)-4-((3-(3-(trifluoromethyl)phenyl)imidazo[1,2-b]pyridazin-6-yl)amino)cyclohexyl)propan-2-ol]
[1]
  Ki: 5 nM
[2]
  Ki: 239 nM
[3]
  Ki: 42 nM
[4]
  IC50: 279 nM
[5]
  reduction of proliferation: ~90%
[6]
  inhibition of proliferation: only modestly inhibited
[7]
  inhibition of proliferation: markedly inhibited
[8]
  inhibition of proliferation: markedly inhibited
[9]
  inhibition of proliferation: dose dependent inhibition
[10]
  inhibition of hematopoietic progenitor colonies: significantly inhibited
[11]
  effect on hematopoietic progenitor colonies: minimal effect
[12]
  apoptosis (Annexin V): significant apoptosis
[13]
  apoptosis (Annexin V): not in wild type JAK2-expressing BA/F3 cells
[14]
  inhibition of cell proliferation: markedly inhibited
[15]; Compound 1 150 mg/kg, ruxolitinib 60 mg/kg, 6 weeks
  fibrosis in bone marrow and spleen (reticulin staining): marked reduction of fibrosis
[15]; [27]
  neutrophil counts: caused reduction
  peripheral blood white blood cell (WBC) counts: caused reduction
[15]; homozygous JAK2 V617F mice, versus vehicle
  spleen size: significantly reduces
[15]; per person
  human equivalent of efficacious dose level in mouse myelofibrosis model (150 mg/kg): 925 mg
[16]
  expression of genes relating to HSC maintenance, TNFα and WNT signaling pathways: significantly downregulated
[17]; average per person
  human equivalent of rat severely toxic dose in 10 percent of animals: 5286 mg
[17]; rat, GLP toxicology
  severely toxic dose in 10 percent of animals: 500 mg/kg
[18]; dog, 7-day repeat studies, not observed at doses as high as
  highest non-severely toxic dose: ≥ 200 mg/kg
[18]; per person
  human equivalent of dog highest non-severely toxic dose: ≥ 7400 mg
[19]
  reduction of proliferation: significantly reduced
[20]
  concentration reducing proliferation: greater than 1 M
[21]
  splenomegaly: significant decrease
[22]
  EC50: 143 nM
[23]; 125 mg/kg
  percentage of tumor growth inhibition (% TGI): 59%
[23]; 200 mg/kg
  percentage of tumor growth inhibition (% TGI): 40%
[24]
  potency at reducing phospho-BAD: more potent
[25]
  metabolic stability: improved metabolic stability

## N#CC[C@H](C1CCCC1)n1cc(-c2ncnc3[nH]ccc23)cn1 [ruxolitinib]
[26]
  inhibition of STAT5 phosphorylation: not inhibited

## CN1CCC(CNc2ccc3ncc(-c4cccc(OC(F)(F)F)c4)n3n2)CC1 [Compound A, reference compound]
[3]
  Ki: 20 nM
[4]
  IC50: 3 nM
